Test results as given in PubChem BioAssay (NCI).
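How tested: cells in 96-well plates exposed to compound for 48 hours at five concentrations. TGI denotes the concentration required for complete inhibition of growth.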 Where a SMILES comes first, the peptide text is derived from it. The star is where a group is joined. Boc = CC(C)(C)OC(=O)*; OBn = c1ccc(CO*)cc1; Bn = c1ccc(C*)cc1

Assays:
Experiment in all cases: NCI tumour cell line growth inhibition, 48 h
HCC-2998 colon = system: HCC-2998 colon
HOP-92 NSCLC = system: HOP-92 NSCLC
SF-295 CNS = system: SF-295 CNS
SK-MEL-5 melanoma = system: SK-MEL-5 melanoma
SK-OV-3 ovarian = system: SK-OV-3 ovarian
TK-10 renal = system: TK-10 renal
UACC-257 melanoma = system: UACC-257 melanoma
UACC-62 melanoma = system: UACC-62 melanoma
OVCAR-4 ovarian = system: OVCAR-4 ovarian
SNB-19 CNS = system: SNB-19 CNS

Row | Compound | TGI (HCC-2998 colon) [µM] | TGI (HOP-92 NSCLC) [µM] | TGI (SF-295 CNS) [µM] | TGI (SK-MEL-5 melanoma) [µM] | TGI (SK-OV-3 ovarian) [µM] | TGI (TK-10 renal) [µM] | TGI (UACC-257 melanoma) [µM] | TGI (UACC-62 melanoma) [µM] | TGI (OVCAR-4 ovarian) [µM] | TGI (SNB-19 CNS) [µM]
1 | COc1cc(C(C)(C)C)c(OC(=O)/C=C/C(=O)O/C=C/[N+](=O)[O-])c(C(C)(C)C)c1 | > 100 | > 100 | > 100 | > 100 | > 100 | > 100 | > 100 | > 100 | – | –
2 | O=C(O)C(C1NCCS1)N1Cc2ccccc2C1 (stereo not given) | – | > 100 | > 100 | > 100 | > 100 | > 100 | > 100 | > 100 | > 100 | > 100
3 | COc1ccc(/C=N/N=C(N)N)c(C(=O)O)c1OC | – | – | > 100 | > 100 | > 100 | > 100 | > 100 | > 100 | > 100 | > 100
4 | O=C(NC12CC3CC(CC(C3)C1)C2)n1cnc2cncnc21 | > 100 | > 100 | 67.6 | 30.6 | 47.1 | > 100 | > 100 | > 100 | – | > 100
5 | O=c1[nH]nc(Nc2ccccc2)c2nnn(Cc3ccccc3)c12 | > 100 | > 100 | > 100 | > 100 | – | > 100 | > 100 | > 100 | > 100 | > 100
6 | NC1=CN2c3ccccc3N(CC(=O)N3CCOCC3)C2C=C1 (stereo not given) | – | > 100 | > 100 | > 100 | > 100 | > 100 | > 100 | > 100 | > 100 | > 100
7 | COc1c2c(cc3oc(=O)ccc13)OC(C)(C)C=C2 | 46.3 | 34.1 | > 125 | 41.8 | > 125 | > 125 | 85.2 | 42.2 | – | > 125
8 | O=C(O)CC(Cc1ccccc1)C(=O)O (stereo not given) | > 100 | – | > 100 | > 100 | > 100 | > 100 | > 100 | > 100 | > 100 | > 100
9 | NC(=O)NC1=NCCC(=O)N1CCc1c[nH]c2ccccc12 | 44.4 | – | > 100 | 34.2 | > 100 | 48.6 | 34.6 | 36.9 | 52.9 | 54.6
10 | CCNc1nc2ccccc2nc1NCC | > 100 | – | > 100 | > 100 | > 100 | > 100 | > 100 | > 100 | – | > 100
11 | CN(C)CCNc1ccccn1 | > 100 | > 100 | > 100 | > 100 | – | > 100 | > 100 | > 100 | > 100 | > 100
12 | O=C(CSCC(=O)N/N=C/c1ccc(F)cc1)N/N=C/c1ccc(F)cc1 | > 100 | > 100 | – | > 100 | > 100 | > 100 | > 100 | > 100 | > 100 | > 100
13 | CSCC[C@@H](NC(=O)[C@H](CC(C)C)NC(=O)C(Cc1cnc[nH]1)NC(=O)CNC(=O)[C@@H](NC(=O)[C@H](C)NC(=O)[C@H](Cc1cn(C=O)c2ccccc12)NC(=O)[C@H](CCC(N)=O)NC(=O)[C@@H](N)CC(N)=O)C(C)C)C(N)=O (stereo not given in full) | > 100 | – | > 100 | > 100 | > 100 | – | > 100 | > 100 | > 100 | > 100
14 | O=C1OS2(OC(=O)c3cccc4cccc2c34)c2ccccc21 (stereo not given) | – | > 100 | > 100 | > 100 | – | > 100 | > 100 | – | > 100 | > 100
15 | O=C1N2CCN=C2c2ccccc2C1(O)c1ccccc1 (stereo not given) | > 100 | > 100 | > 100 | > 100 | – | > 100 | > 100 | > 100 | > 100 | > 100
16 | C/C(=C/CC[C@](C)(OC1OC(CO)C(O)C(O)C1OC1OC(C)C(O)C(O)C1O)[C@H]1CC[C@]2(C)[C@@H]1CC[C@@H]1[C@@]3(C)CC[C@H](O)C(C)(C)[C@@H]3C[C@H](O)[C@]12C)CO (stereo not given in full) | – | > 100 | > 100 | > 100 | > 100 | > 100 | > 100 | > 100 | > 100 | > 100
17 | CC(C)CC(NC(=O)C(CCC(=O)OCc1ccccc1)NC(=O)OC(C)(C)C)C(=O)NC(COCc1ccccc1)C(=O)NC(Cc1ccccc1)C(=O)O (stereo not given) (Boc-E(OBn)LS(Bn)F-OH; configuration not given here) | > 100 | > 100 | – | > 100 | – | > 100 | > 100 | > 100 | – | > 100
